Like-named read-outs stand apart in the source and are kept apart here. Starred links: 1 amine or outer side, 2 acyl side, 3 side chain; linkers in the order of their positions; H or OH if unused. Positions of bridges follow the written chain, without caps; N, C: chain ends. Non-standard residues stand in square brackets, D forms with d. Residues, ends and D or L forms follow the SMILES beside them. ξ: configuration not given here. Phe(2,4-F2) = N[C@@H](Cc1ccc(F)cc1F)C(=O)O; 2Nal = N[C@@H](Cc1ccc2ccccc2c1)C(=O)O; βAsp = O=C(O)[C@H](CC(=O)[*:2])N[*:1]; NMeD = CN[C@@H](CC(=O)O)C(=O)O; Ahp(2) = CCCCC[C@H](N)C(=O)O; NMeNle = CCCC[C@H](NC)C(=O)O; Tle = CC(C)(C)[C@H](N)C(=O)O; NMeS = CN[C@@H](CO)C(=O)O; NHexGly = CCCCCCNCC(=O)O; NMeA = CN[C@@H](C)C(=O)O; Nle = CCCC[C@H](N)C(=O)O; Aun = NCCCCCCCCCCC(=O)O; Dab = NCC[C@H](N)C(=O)O; Nva = CCC[C@H](N)C(=O)O; Dap = NC[C@H](N)C(=O)O; AEEA = NCCOCCOCC(=O)O; ξS = NC(CO)C(=O)O
Target: T1, mouse VISTA (mVISTA) (Mus musculus, UniProt Q9D659)
T1 construct: expressed in transfected cells; host or cells: Human embryonic kidney 293T cells
T1 sequence (Q9D659 33-308): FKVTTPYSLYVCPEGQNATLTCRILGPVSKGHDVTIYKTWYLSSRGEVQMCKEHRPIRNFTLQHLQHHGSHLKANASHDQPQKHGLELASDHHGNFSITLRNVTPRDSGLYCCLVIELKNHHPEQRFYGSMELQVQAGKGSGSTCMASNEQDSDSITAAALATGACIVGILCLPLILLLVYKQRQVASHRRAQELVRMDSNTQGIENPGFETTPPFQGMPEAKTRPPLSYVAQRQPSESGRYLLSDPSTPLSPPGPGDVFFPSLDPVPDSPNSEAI
Assay: Cell-Based Binding High-Content Assay For mVISTA (HC CBA mVISTA)
Procedure, shortened: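 mVISTA-293T, 4,000 cells/well; cpd ± washout step; biotin-peptide 2 nM final, 30 min RT; SA-Alexa 647 30 min; formaldehyde/Hoechst fix; HCS imaging; 4PL IC50.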

[1] = cell-based binding high-content assay, mVISTA, the 15th table, read-out: HC CBA mVISTA IC50
[2] = 293T cells expressing mouse VISTA, competition with biotinylated peptide (2 nM), read-out: HC CBA mVISTA IC50

Structure (SMILES): CCCCCCN1CC(=O)N[C@@H](Cc2ccc(O)cc2)C(=O)N[C@@H](CCCC)C(=O)N[C@@H](CC(=O)O)C(=O)N[C@@H](CCCNC(=N)N)C(=O)N[C@@H](CC(C)C)C(=O)N[C@@H](CCCCC)C(=O)N2CCC[C@H]2C(=O)N[C@@H](C(C)C)C(=O)N[C@@H](CC(=O)O)C(=O)N[C@H](C(=O)N[C@@H](CC(=O)O)C(N)=O)CSCC(=O)N[C@@H](Cc2ccc3ccccc3c2)C(=O)N[C@@H](Cc2c[nH]c3ccccc23)C(=O)N[C@@H](CC(=O)O)C1=O [compound 1226] ({CH2CO}-[2Nal]WD[NHexGly]Y[Nle]DRL[Ahp(2)]PVDCD-NH2; thioether N-14)
- IC50 [1]: 14.4 nM

Structure (SMILES): CCCCCCN1CC(=O)N[C@@H](Cc2ccc(O)cc2)C(=O)N[C@@H](CCC)C(=O)NCC(=O)N[C@@H](CCCNC(=N)N)C(=O)N[C@@H](CC(C)C)C(=O)N[C@@H](CCCCC)C(=O)N2CCC[C@H]2C(=O)N[C@@H](C(C)C)C(=O)N2CCC[C@H]2C(=O)N[C@H](C(=O)NCC(N)=O)CSCC(=O)N[C@@H](Cc2ccccc2)C(=O)N[C@@H](Cc2ccc(O)cc2)C(=O)N[C@@H](CC(=O)O)C1=O [Example 1102] ({CH2CO}-FYD[NHexGly]Y[Nva]GRL[Ahp(2)]PVPCG-NH2; thioether N-14)
- IC50 [2]: 25.7 nM

Structure (SMILES): CCCCCCN1CC(=O)N[C@@H](Cc2ccc(O)cc2)C(=O)N[C@@H](CCCCN)C(=O)N[C@@H](CC(N)=O)C(=O)N[C@@H](CCCNC(=N)N)C(=O)N[C@@H](CC(C)C)C(=O)N[C@@H](CCCCC)C(=O)N2CCC[C@H]2C(=O)N[C@@H](C(C)C)C(=O)N[C@@H](CO)C(=O)N[C@H](C(=O)NCC(=O)O)CSCC(=O)N[C@@H](Cc2ccccc2)C(=O)N[C@@H](Cc2ccc(O)cc2)C(=O)N[C@@H](CC(=O)O)C1=O [Example 1058] ({CH2CO}-FYD[NHexGly]YKNRL[Ahp(2)]PVSCG-OH; thioether N-14)
- IC50 [2]: 38.7 nM

Structure (SMILES): CCCCCCN1CC(=O)N[C@@H](Cc2ccc(O)cc2)C(=O)N[C@@H](C)C(=O)N[C@@H](CC(N)=O)C(=O)N[C@@H](CCCNC(=N)N)C(=O)N(C)[C@@H](CCCC)C(=O)N[C@@H](CCCCC)C(=O)N2CCC[C@H]2C(=O)N[C@@H](C(C)(C)C)C(=O)N[C@@H](CO)C(=O)N[C@H](C(=O)N[C@@H](CC(=O)NCCOCCOCC(=O)N[C@@H](CC(=O)O)C(=O)NCCOCCOCC(=O)NCCCCCCCCCCC(=O)O)C(=O)O)CSCC(=O)N[C@@H](Cc2ccccc2)C(=O)N[C@@H](Cc2ccc(O)cc2)C(=O)N[C@@H](CC(=O)O)C1=O [compound 2058] ({CH2CO}-FYD[NHexGly]YANR[NMeNle][Ahp(2)]P[Tle]SC[βAsp][AEEA]D[AEEA][Aun]-OH; thioether N-14)
- IC50 (cell-based binding high-content assay, mVISTA, read-out: HC CBA miPr ISTA IC50): 27.6 nM

Structure (SMILES): CCCCCCN1CC(=O)N[C@@H](Cc2ccc(O)cc2)C(=O)N[C@@H](CCCC)C(=O)N[C@@H](CC(N)=O)C(=O)N[C@@H](CCCNC(=N)N)C(=O)N(C)[C@@H](C)C(=O)N[C@@H](CCCCC)C(=O)N2CCC[C@H]2C(=O)N[C@@H](C(C)C)C(=O)N[C@@H](CO)C(=O)N[C@H](C(=O)N[C@@H](CC(=O)NCCOCCOCC(=O)NCCCCCCCCCCC(=O)O)C(=O)O)CSCC(=O)N[C@@H](Cc2ccccc2)C(=O)N[C@@H](Cc2c[nH]c3ccccc23)C(=O)N[C@@H](CC(=O)O)C1=O [Example 2174] ({CH2CO}-FWD[NHexGly]Y[Nle]NR[NMeA][Ahp(2)]PVSC[βAsp][AEEA][Aun]-OH; thioether N-14)
- IC50 (read-out: HC CBA mVISTA IC50): 16.6 nM

Structure (SMILES): CCCCCCN1CC(=O)N[C@@H](Cc2ccc(O)cc2)C(=O)N[C@@H](C(C)C)C(=O)NCC(=O)N[C@@H](CCCNC(=N)N)C(=O)N[C@@H](CC(C)C)C(=O)N[C@@H](CCCCC)C(=O)N2CCC[C@H]2C(=O)N[C@@H](C(C)C)C(=O)N[C@@H](CC(=O)O)C(=O)N[C@H](C(=O)NCC(=O)O)CSCC(=O)N[C@@H](Cc2ccccc2)C(=O)N[C@@H](Cc2ccc(O)cc2)C(=O)N[C@@H](CC(=O)O)C1=O [Example 1018] ({CH2CO}-FYD[NHexGly]YVGRL[Ahp(2)]PVDCG-OH; thioether N-14)
- IC50 [2]: 33.9 nM

Structure (SMILES): CCCCCCN1CC(=O)N[C@@H](Cc2ccc(O)cc2)C(=O)N[C@@H](C(C)C)C(=O)NCC(=O)N[C@@H](CCCNC(=N)N)C(=O)N[C@@H](CC(C)C)C(=O)N[C@@H](CCCCC)C(=O)N2CCC[C@H]2C(=O)N[C@@H](C(C)C)C(=O)N[C@@H](CC(=O)O)C(=O)N[C@H](C(=O)N[C@@H](CO)C(=O)N[C@@H](CCN)C(=O)N[C@@H](CC(N)=O)C(=O)O)CSCC(=O)N[C@@H](Cc2ccc3ccccc3c2)C(=O)N[C@@H](Cc2ccc(O)cc2)C(=O)N[C@@H](CC(=O)O)C1=O [Example 1164] ({CH2CO}-[2Nal]YD[NHexGly]YVGRL[Ahp(2)]PVDCS[Dab]N-OH; thioether N-14)
- IC50 [2]: 9.8 nM

Structure (SMILES): CCCCCCN1CC(=O)N[C@@H](Cc2ccc(O)cc2)C(=O)N[C@@H](CCCC)C(=O)NCC(=O)N[C@@H](CCCNC(=N)N)C(=O)N[C@@H](CC(C)C)C(=O)N[C@@H](CCCCC)C(=O)N2CCC[C@H]2C(=O)N[C@@H](C(C)C)C(=O)N[C@@H](CO)C(=O)N[C@H](C(=O)NCC(N)=O)CSCC(=O)N[C@@H](Cc2ccccc2)C(=O)N[C@@H](Cc2ccc(O)cc2)C(=O)N[C@@H](CC(=O)O)C1=O [Example 1050] ({CH2CO}-FYD[NHexGly]Y[Nle]GRL[Ahp(2)]PVSCG-NH2; thioether N-14)
- IC50 [2]: 29.9 nM

Structure (SMILES): CCCCCCN1CC(=O)N[C@@H](Cc2ccc(O)cc2)C(=O)N[C@@H](CCCC)C(=O)N[C@@H](CC(N)=O)C(=O)N[C@@H](CCCNC(=N)N)C(=O)N(C)[C@@H](CO)C(=O)N[C@@H](CCCCC)C(=O)N2CCC[C@H]2C(=O)N[C@@H](C(C)C)C(=O)N[C@@H](CC(=O)O)C(=O)N[C@H](C(=O)NCC(=O)O)CSCC(=O)N[C@@H](Cc2ccc3ccccc3c2)C(=O)N[C@@H](Cc2c[nH]c3ccccc23)C(=O)N[C@@H](CC(=O)O)C1=O [compound 1259] ({CH2CO}-[2Nal]WD[NHexGly]Y[Nle]NR[NMeS][Ahp(2)]PVDCG-OH; thioether N-14)
- IC50 [1]: 8 nM

Structure (SMILES): CCCCCCN1CC(=O)N[C@@H](Cc2ccc(O)cc2)C(=O)N[C@@H](CC(C)C)C(=O)N[C@@H](CC(N)=O)C(=O)N[C@@H](CCCNC(=N)N)C(=O)N(C)[C@@H](CO)C(=O)N[C@@H](CCCCC)C(=O)N2CCC[C@H]2C(=O)N[C@@H](C(C)(C)C)C(=O)N[C@@H](CC(=O)O)C(=O)N[C@H](C(=O)N[C@@H](CC(=O)NCCOCCOCC(=O)N[C@@H](CC(=O)O)C(=O)NCCOCCOCC(=O)NCCCCCCCCCCC(=O)O)C(=O)O)CSCC(=O)N[C@@H](Cc2ccc3ccccc3c2)C(=O)N[C@@H](Cc2ccc(O)cc2)C(=O)N[C@@H](CC(=O)O)C1=O [compound 2070] ({CH2CO}-[2Nal]YD[NHexGly]YLNR[NMeS][Ahp(2)]P[Tle]DC[βAsp][AEEA]D[AEEA][Aun]-OH; thioether N-14)
- IC50 (cell-based binding high-content assay, mVISTA, read-out: HC CBA miPrISTA IC50): 41.6 nM

Structure (SMILES): CCCCCCN1CC(=O)N[C@@H](Cc2ccc(O)cc2)C(=O)N[C@@H](C(C)C)C(=O)NCC(=O)N[C@@H](CCCNC(=N)N)C(=O)N[C@@H](CC(C)C)C(=O)N[C@@H](CCCCC)C(=O)N2CCC[C@H]2C(=O)N[C@@H](C(C)C)C(=O)N[C@@H](CC(=O)O)C(=O)N[C@H](C(=O)NCC(=O)O)CSCC(=O)N[C@@H](Cc2ccc(OC)cc2)C(=O)N[C@@H](Cc2ccc(O)cc2)C(=O)N[C@@H](CC(=O)O)C1=O [compound 1478] ({CH2CO}-Y(Me)YD[NHexGly]YVGRL[Ahp(2)]PVDCG-OH; thioether N-14)
- IC50 (the 20th table, scaffold drawing 23, read-out: HC CBA mVISTA IC50): 12 nM

Structure (SMILES): CCCCCCN1CC(=O)N[C@@H](Cc2ccc(O)cc2)C(=O)N[C@@H](CCCC)C(=O)N[C@@H](CC(N)=O)C(=O)N[C@@H](CCCNC(=N)N)C(=O)N(C)[C@@H](CCCC)C(=O)N[C@@H](CCCCC)C(=O)N2CCC[C@H]2C(=O)N[C@@H](C(C)C)C(=O)N[C@@H](CC(=O)O)C(=O)N[C@H](C(=O)N[C@@H](CN)C(=O)N[C@@H](CC(N)=O)C(=O)O)CSCC(=O)N[C@@H](Cc2ccc3ccccc3c2)C(=O)N[C@@H](Cc2c[nH]c3ccccc23)C(=O)N[C@@H](CC(=O)O)C1=O [compound 1136] ({CH2CO}-[2Nal]WD[NHexGly]Y[Nle]NR[NMeNle][Ahp(2)]PVDC[Dap]N-OH; thioether N-14)
- IC50 (read-out: HC CBA mVISTA IC50): 9.5 nM

Structure (SMILES): CCCCCCN1CC(=O)N[C@@H](Cc2ccc(O)cc2)C(=O)N[C@@H](CCCCC)C(=O)N[C@@H](CC(N)=O)C(=O)N[C@@H](CCCNC(=N)N)C(=O)N(C)[C@@H](CCCC)C(=O)N[C@@H](CCCCC)C(=O)N2CCC[C@H]2C(=O)N[C@@H](C(C)C)C(=O)N[C@@H](C(C)C)C(=O)N[C@H](C(=O)NC(CO)C(=O)O)CSCC(=O)N[C@@H](Cc2ccc(F)cc2F)C(=O)N[C@@H](Cc2ccc(F)cc2F)C(=O)N[C@@H](CC(=O)O)C1=O (some centres unmarked) [compound 1219] ({CH2CO}-[Phe(2,4-F2)][Phe(2,4-F2)]D[NHexGly]Y[Ahp(2)]NR[NMeNle][Ahp(2)]PVVC[ξS]-OH; thioether N-14)
- IC50 (read-out: HC CBA mVISTA IC50): 33.9 nM

Structure (SMILES): CCCCCCN1CC(=O)N[C@@H](Cc2ccc(O)cc2)C(=O)N[C@@H](CCCC)C(=O)N[C@@H](CC(N)=O)C(=O)N[C@@H](CCCNC(=N)N)C(=O)N(C)[C@@H](CC(=O)O)C(=O)N[C@@H](CCCCC)C(=O)N2CCC[C@H]2C(=O)N[C@@H](C(C)C)C(=O)N[C@@H](CC(=O)O)C(=O)N[C@H](C(=O)NCC(=O)O)CSCC(=O)N[C@@H](Cc2ccc3ccccc3c2)C(=O)N[C@@H](Cc2c[nH]c3ccccc23)C(=O)N[C@@H](CC(=O)O)C1=O [compound 1238] ({CH2CO}-[2Nal]WD[NHexGly]Y[Nle]NR[NMeD][Ahp(2)]PVDCG-OH; thioether N-14)
- IC50 [1]: 25.2 nM

Source: patent US20240218022A1, “ANTI-VISTA MACROCYCLIC PEPTIDES AND COMPOSITIONS” (BRISTOL-MYERS SQUIBB COMPANY, priority 2022, published 2024)
